Reference: patent US9044465B2, “Use of analgesic potentiating compounds to potentiate the analgesic properties of an analgesic compound” (priority 2008, dated 2015)

Legend:
[1] = system: patients with acute sore throat and pharyngitis; experiment: Definite Improvement Level (DIL), same study; conditions: single oral dose, placebo 11.1%; for patients who achieved their own Definite Improvement Level on the TSS: Throat Soreness Scale
Description: A randomized, double-blind, placebo-controlled single-dose study was performed. In order to be eligible for the study, patients were required to have a history of an acute sore throat and physical evidence of pharyngitis. A total of 99 patients who met pre-specified inclusion and exclusion criteria, including moderate to severe throat pain intensity, as measured by a score≧7 on the Throat Soreness Scale (TSS), were admitted to the study.
At this visit they were shown each baseline rating scale and asked to indicate which level represented “definite improvement” to them (Definite Improvement Level), the Diary was reviewed for completeness by the Study Nurse, and ongoing evaluation and treatment were provided, if necessary, per standard clinic procedures.
After the patient is shown his/her completed Baseline Throat Soreness Scale, the Study Nurse will point to the number which the patient marked at Baseline and instruct the patient:
“Starting at this level with your sore throat, at and below which number means definite improvement to you?”
Next, the Study Nurse will separately show the patient his/her Baseline Difficulty Swallowing Scale, Swollen Throat Scale, Difficulty Talking Scale, and each of the 10 Quality-of-Pain Scales, with the same instructions for each scale.
Analyses were performed on all 99 patients (“intent-to-treat analyses”). […] Definite Improvement Level comparisons were performed using Fisher's Exact Test. Correlations between each new rating scale and the TSS were performed using Spearman Rank Correlation.

[2] = system: patients with acute sore throat and pharyngitis; experiment: Improvement Assessment (IA), same study; type: in vivo, human; conditions: single oral dose; for patients who achieved at least some improvement within 30 minutes (IA): first 30 minutes, placebo 1/9; for time from which IA scores separated/differed from placebo: improvement at individual time points; for patients who achieved at least 50% improvement over 6 hours (IA): over the 6-hour treatment period, placebo 2/9; for patients who achieved at least some improvement within 1 hour (IA): placebo 4/9
Text: (§1) A total of 99 patients who met pre-specified inclusion and exclusion criteria, including moderate to severe throat pain intensity, as measured by a score≧7 on the Throat Soreness Scale (TSS), were admitted to the study.
(§2) There were 9 patients randomly assigned to each treatment group.
(§3) After administration of the assigned study medication, patients completed (1) the Throat Soreness Scale, (2) the Swollen Throat Scale, (3) the Difficulty Swallowing Scale, and (4) the Improvement Assessment (IA) every 15 minutes up to 2 hours. Measurements on the Difficulty Talking Scale and the Quality-of-Pain Scales were obtained after these four assessments at 60 minutes and at 2 hours after treatment.
(§4) After these 2nd hour assessments, patients were discharged from the clinic with a Diary for entering responses on the Throat Soreness Scale, Swollen Throat Scale, Difficulty Swallowing Scale, Difficulty Talking Scale, and Improvement Assessment at 3, 4, 5, and 6 hours. After the 6 hour assessments, patients completed the Quality-of-Pain Scales.
The patient will grade the improvement of his/her throat at 15, 30, 45, 60, 75, 90, 105, and 120 minutes, and at 3, 4, 5, and 6 hours post dose using a 5-category transitional scale. The patient will be instructed:
“Considering how your throat felt before you took the study medicine, circle the response that best describes how your throat is now.”
• Grading • no improvement • some improvement • 50% improvement • definite improvement • 100% improvement Data from this scale will be transcribed onto the appropriate Summary Data CRFs. Definite Improvement Level (DIL)

[3] = system: patients with acute sore throat and pharyngitis; experiment: Throat Soreness Scale (TSS), randomized double-blind placebo-controlled single-dose study; type: in vivo, human; conditions: single oral dose; for time from which TSS scores separated/differed from placebo: throat soreness difference at individual time points; for reduction in throat soreness (TSS) compared to placebo over 6 hours: 9 patients per group, vs placebo
Description: as §1, §2
They were discharged home for hourly assessments up to 6 hours post-dose. Patients were allowed alternative analgesic medication at any time during the study.
(§5) The Throat Soreness Scale (TSS), Swollen Throat Scale (SwoTS), Difficulty Swallowing Scale (DSS), Difficulty Talking Scale (DTS), and other Quality-of-Pain Scales were completed at Baseline (immediately pre-treatment). Each of these measurement instruments is a 0-10 ordinal scale (see TEST PROTOCOL below).
as §3, §4
The patient will be asked to evaluate his/her throat soreness using a 0-to-10 ordinal scale at Baseline as well as at 15, 30, 45, 60, 75, 90, 105 and 120 min and then hourly through 6 hours. The patient will be requested to swallow and instructed:
The primary endpoint variable is the Summed Difference in Throat Soreness at 6 hours, which is based on the Throat Soreness Scale. The patient will be asked to evaluate his/her throat soreness, using a 0-to-10 ordinal scale at baseline and at 15, 30, 45, 60, 75, 90, 105 minutes and 2, 3, 4, 5, and 6 hours. At each time point post-dose, a difference is calculated between the throat soreness at that time and the patient's baseline throat soreness. The time-weighted Summed Difference in Throat Soreness at each time point is calculated as the sum of the differences from baseline until that time point.

[4] = system: patients with acute sore throat and pharyngitis; experiment: Throat Function Index (TFI: swallowing and talking), same study; type: in vivo, human; conditions: single oral dose, vs placebo
Text: as §1, §2
**Difficulty Swallowing and Difficulty Talking comprise the 20-point Throat Function Index.

[5] = system: patients with acute sore throat and pharyngitis; experiment: Difficulty Swallowing Scale (DSS), same study; type: in vivo, human; conditions: single oral dose, vs placebo
Text: as §1, §2, §5, §3
(§6) After these 2nd hour assessments, patients were discharged from the clinic with a Diary for entering responses on the Throat Soreness Scale, Swollen Throat Scale, Difficulty Swallowing Scale, Difficulty Talking Scale, and Improvement Assessment at 3, 4, 5, and 6 hours. After the 6 hour assessments, patients completed the Quality-of-Pain Scales. […]

[6] = system: patients with acute sore throat and pharyngitis; experiment: Difficulty Talking Scale (DTS), same study; type: in vivo, human; conditions: single oral dose, vs placebo
Text: as §1, §2, §5, §3, §6

[7] = system: patients with acute sore throat and pharyngitis; experiment: Quality of Pain Index (QPI, 12 qualities of throat pain), same study; type: in vivo, human; conditions: single oral dose, vs placebo
Text: as §1, §2, §3, §4
The patient will be instructed to swallow and instructed: […]

[8] = system: patients with acute sore throat and pharyngitis; experiment: Swollen Throat Scale (SwoTS), same study; type: in vivo, human; conditions: single oral dose, vs placebo
Text: as §1, §2, §5, §3, §6

| SMILES | patients who achieved their own Definite Improvement Level on the TSS [1] | patients who achieved their own Definite Improvement Level on the "It hurts" Quality-of-Pain Scale [1] | patients who achieved their own Definite Improvement Level on the Difficulty Swallowing Scale [1] | patients who achieved at least some improvement within 30 minutes (IA) [2] | time from which IA scores separated/differed from placebo [2] | patients who achieved at least 50% improvement over 6 hours (IA) [2] | patients who achieved at least some improvement within 1 hour (IA) [2] | time from which TSS scores separated/differed from placebo [3] | reduction in the TFI compared with placebo over 6 hours [4] | reduction in difficulty swallowing (DSS) compared with placebo over 6 hours [5] | reduction in difficulty talking (DTS) compared with placebo over 6 hours [6] | reduction in throat soreness (TSS) compared to placebo over 6 hours [3] | reduction in the QPI compared with placebo over 6 hours [7] | reduction in throat swelling (SwoTS) compared with placebo over 6 hours [8] |
| --- | --- | --- | --- | --- | --- | --- | --- | --- | --- | --- | --- | --- | --- | --- |
| Cc1ccc(-c2cc(C(F)(F)F)nn2-c2ccc(S(N)(=O)=O)cc2)cc1 [celecoxib] | 77.7% | 55.6% | 66.7% | 3/9 | 45 min | 8/9 | 7/9 | 30 min | – | – | – | – | – | – |
| CC(=O)Nc1ccc(O)cc1 [acetaminophen] | 44.4% | 55.6% | 55.6% | 8/9 | 30 min | 7/9 | 9/9 | 15 min | significantly greater reduction in the TFI | significant difference | significant | significantly greater reduction in throat soreness compared to placebo | significantly differentiated from placebo | significantly differentiated from placebo |
| CC(C)Cc1ccc(C(C)C(=O)O)cc1 (centres unmarked) [ibuprofen] | 44.4% | 33.3% | 44.4% | 6/9 | 30 min | 4/9 | 9/9 | 30 min | – | greater reduction in difficulty swallowing compared with placebo | – | trend | – | – |
| COc1ccc2cc([C@H](C)C(=O)O)ccc2c1 [naproxen, naproxen sodium] | 22.2% | 33.3% | 33.3% | 4/9 | 45 min | 4/9 | 7/9 | 30 min | – | – | – | differentiated from placebo | – | – |
